# Data: ChEMBL document CHEMBL3390836, “Mannich- and LedererManasse-based analogues of the natural product S-(+)-curcuphenol as cancer proliferation and migration inhibitors” (Medchemcomm, 2012)
# Tests used:
# Assay type in all cases: functional
# [1] = Cytotoxicity against human HCT116 cells assessed as cell growth at 10^-4 M after 48 hrs by SRB assay relative to control; settings: HCT-116, 48 h, read-out: Activity
# [2] = Cytotoxicity against human HCT15 cells assessed as cell growth at 10^-4 M after 48 hrs by SRB assay relative to control; settings: HCT-15, 48 h, read-out: Activity
# KM12 [3] = test: Cytotoxicity against human KM12 cells assessed as cell growth at 10^-4 M after 48 hrs by SRB assay relative to control; settings: KM12, 48 h, read-out: Activity
# SW-620 [4] = test: Cytotoxicity against human SW620 cells assessed as cell growth at 10^-4 M after 48 hrs by SRB assay relative to control; settings: SW-620, 48 h, read-out: Activity
# SNB-75 = test: Cytotoxicity against human SNB75 cells after 48 hrs by SRB assay; settings: SNB-75, 48 h
# IGROV-1 [5] = test: Cytotoxicity against human IGROV1 cells after 48 hrs by SRB assay; settings: IGROV-1, 48 h
# NCI-H460 = test: Cytotoxicity against human NCI-H460 cells assessed as cell growth at 10^-8 M after 48 hrs by SRB assay relative to control; settings: NCI-H460, 48 h, read-out: Activity
# SW-620 [6] = test: Cytotoxicity against human SW620 cells assessed as cell growth at 10^-8 M after 48 hrs by SRB assay relative to control; settings: SW-620, 48 h, read-out: Activity
# SF-295 = test: Cytotoxicity against human SF295 cells assessed as cell growth at 10^-8 M after 48 hrs by SRB assay relative to control; settings: SF-295, 48 h, read-out: Activity
# SF-539 [7] = test: Cytotoxicity against human SF539 cells assessed as cell growth at 10^-8 M after 48 hrs by SRB assay relative to control; settings: SF-539, 48 h, read-out: Activity
# Malme-3M = test: Cytotoxicity against human MALME-3M cells assessed as cell growth at 10^-8 M after 48 hrs by SRB assay relative to control; settings: read-out: Activity
# [8] = Cytotoxicity against human OVCAR3 cells assessed as cell growth at 10^-4 M after 48 hrs by SRB assay relative to control; settings: OVCAR-3, 48 h, read-out: Activity
# [9] = Cytotoxicity against human NCI-ADR-RES cells assessed as cell growth at 10^-4 M after 48 hrs by SRB assay relative to control; settings: read-out: Activity
# ACHN = test: Cytotoxicity against human ACHN cells assessed as cell growth at 10^-4 M after 48 hrs by SRB assay relative to control; settings: read-out: Activity
# TK-10 = test: Cytotoxicity against human TK10 cells assessed as cell growth at 10^-4 M after 48 hrs by SRB assay relative to control; settings: TK-10, 48 h, read-out: Activity
# [10] = Cytotoxicity against human UO31 cells assessed as cell growth at 10^-4 M after 48 hrs by SRB assay relative to control; settings: UO-31, 48 h, read-out: Activity
# [11] = Cytotoxicity against human Hs 578T cells assessed as cell growth at 10^-4 M after 48 hrs by SRB assay relative to control; settings: read-out: Activity
# MDA-MB-468 = test: Cytotoxicity against human MDA-MB-468 cells assessed as cell growth at 10^-4 M after 48 hrs by SRB assay relative to control; settings: MDA-MB-468, 48 h, read-out: Activity
# SK-MEL-28 = test: Cytotoxicity against human SK-MEL-28 cells assessed as cell growth at 10^-8 M after 48 hrs by SRB assay relative to control; settings: SK-MEL-28, 48 h, read-out: Activity
# MDA-MB-231 [12] = test: Cytotoxicity against human MDA-MB-231 cells assessed as cell growth at 10^-8 M after 48 hrs by SRB assay relative to control; settings: MDA-MB-231, 48 h, read-out: Activity
# T47D = test: Cytotoxicity against human T47D cells assessed as cell growth at 10^-8 M after 48 hrs by SRB assay relative to control; settings: read-out: Activity
# HL-60(TB) = test: Cytotoxicity against human HL-60(TB) cells assessed as cell growth at 10^-7 M after 48 hrs by SRB assay relative to control; settings: HL-60, 48 h, read-out: Activity
# HOP-62 = test: Cytotoxicity against human HOP62 cells assessed as cell growth at 10^-7 M after 48 hrs by SRB assay relative to control; settings: HOP-62, 48 h, read-out: Activity
# SF-539 [13] = test: Cytotoxicity against human SF539 cells assessed as cell growth at 10^-7 M after 48 hrs by SRB assay relative to control; settings: SF-539, 48 h, read-out: Activity
# MDA-MB-435 = test: Cytotoxicity against human MDA-MB-435 cells assessed as cell growth at 10^-7 M after 48 hrs by SRB assay relative to control; settings: MDA-MB-435, 48 h, read-out: Activity
# NCI-H23 = test: Cytotoxicity against human NCI-H23 cells after 48 hrs by SRB assay; settings: NCI-H23, 48 h
# HT-29 = test: Cytotoxicity against human HT-29 cells after 48 hrs by SRB assay; settings: HT-29, 48 h; for CC50: read-out: LC50 (the source's name)
# [14] = Cytotoxicity against human UACC62 cells assessed as cell growth at 10^-7 M after 48 hrs by SRB assay relative to control; settings: UACC-62, 48 h, read-out: Activity
# [15] = Cytotoxicity against human SKOV3 cells assessed as cell growth at 10^-7 M after 48 hrs by SRB assay relative to control; settings: SK-OV-3, 48 h, read-out: Activity
# MDA-MB-231 [16] = test: Cytotoxicity against human MDA-MB-231 cells assessed as cell growth at 10^-7 M after 48 hrs by SRB assay relative to control; settings: MDA-MB-231, 48 h, read-out: Activity
# HCC 2998 = test: Cytotoxicity against human HCC2998 cells assessed as cell growth at 10^-6 M after 48 hrs by SRB assay relative to control; settings: HCC 2998, 48 h, read-out: Activity
# KM12 [17] = test: Cytotoxicity against human KM12 cells assessed as cell growth at 10^-6 M after 48 hrs by SRB assay relative to control; settings: KM12, 48 h, read-out: Activity
# SNB-19 = test: Cytotoxicity against human SNB19 cells assessed as cell growth at 10^-6 M after 48 hrs by SRB assay relative to control; settings: SNB-19, 48 h, read-out: Activity
# IGROV-1 [18] = test: Cytotoxicity against human IGROV1 cells assessed as cell growth at 10^-6 M after 48 hrs by SRB assay relative to control; settings: IGROV-1, 48 h, read-out: Activity
# [19] = Cytotoxicity against human OVCAR4 cells assessed as cell growth at 10^-6 M after 48 hrs by SRB assay relative to control; settings: OVCAR-4, 48 h, read-out: Activity
# [20] = Cytotoxicity against human EKVX cells assessed as cell growth at 10^-4 M after 48 hrs by SRB assay relative to control; settings: read-out: Activity
structure (smiles),measurement,setting,value
COc1ccc(CCN2COc3c([C@@H](C)CCC=C(C)C)ccc(C)c3C2)cc1OC,growth at 100 µM,[1],-100%
same,growth at 100 µM,[2],-87%
same,growth at 100 µM,KM12 [3],-75%
same,growth at 100 µM,SW-620 [4],-86%
same,GI50,SNB-75,12.5 µM
same,LC50,SNB-75,> 100 µM
same,TGI,SNB-75,35.4 µM
same,GI50,IGROV-1 [5],1.08 µM
same,LC50 (concentration killing 50% of cells),IGROV-1 [5],12.7 µM
same,TGI,IGROV-1 [5],3.52 µM
same,growth at 0.01 µM,NCI-H460,101%
same,growth at 0.01 µM,SW-620 [6],97%
same,growth at 0.01 µM,SF-295,81%
same,growth at 0.01 µM,SF-539 [7],95%
same,growth at 0.01 µM,Malme-3M,91%
same,growth at 100 µM,[8],-94%
same,growth at 100 µM,[9],-90%
same,growth at 100 µM,ACHN,-92%
same,growth at 100 µM,TK-10,-88%
same,growth at 100 µM,[10],-96%
same,growth at 100 µM,[11],-66%
same,growth at 100 µM,MDA-MB-468,-92%
same,growth at 0.01 µM,SK-MEL-28,106%
same,growth at 0.01 µM,MDA-MB-231 [12],100%
same,growth at 0.01 µM,T47D,88%
same,growth at 0.1 µM,HL-60(TB),99%
same,growth at 0.1 µM,HOP-62,96%
same,growth at 0.1 µM,SF-539 [13],88%
same,growth at 0.1 µM,MDA-MB-435,95%
same,GI50,NCI-H23,2.55 µM
same,LC50,NCI-H23,21.8 µM
same,TGI,NCI-H23,6.08 µM
same,GI50,HT-29,2200 nM
same,TGI,HT-29,5.73 µM
same,CC50,HT-29,22.4 µM
same,growth at 0.1 µM,[14],90%
same,growth at 0.1 µM,[15],98%
same,growth at 0.1 µM,MDA-MB-231 [16],82%
same,growth at 1 µM,HCC 2998,88%
same,growth at 1 µM,KM12 [17],93%
same,growth at 1 µM,SNB-19,95%
same,growth at 1 µM,IGROV-1 [18],53%
same,growth at 1 µM,[19],85%
same,growth at 100 µM,[20],-40%
CC(C)=CCC[C@H](C)c1ccc(C)c(CNCC2CCNCC2)c1O,growth at 100 µM,[1],-39%
same,growth at 100 µM,[2],-11%
same,growth at 100 µM,KM12 [3],-77%
same,growth at 100 µM,SW-620 [4],-82%
same,GI50,SNB-75,3.89 µM
same,LC50,SNB-75,> 25 µM
same,TGI,SNB-75,12.3 µM
same,GI50,IGROV-1 [5],9.4 µM
same,LC50 (concentration killing 50% of cells),IGROV-1 [5],> 25 µM
same,TGI,IGROV-1 [5],> 25 µM
same,growth at 0.01 µM,NCI-H460,101%
same,growth at 0.01 µM,SW-620 [6],100%
same,growth at 0.01 µM,SF-295,96%
same,growth at 0.01 µM,SF-539 [7],96%
same,growth at 0.01 µM,Malme-3M,97%
same,growth at 100 µM,[8],3%
same,growth at 100 µM,[9],46%
same,growth at 100 µM,ACHN,-34%
same,growth at 100 µM,TK-10,-15%
same,growth at 100 µM,[10],-29%
same,growth at 100 µM,[11],23%
same,growth at 100 µM,MDA-MB-468,-90%
same,growth at 0.01 µM,SK-MEL-28,102%
same,growth at 0.01 µM,MDA-MB-231 [12],105%
same,growth at 0.01 µM,T47D,101%
same,growth at 0.1 µM,HL-60(TB),101%
same,growth at 0.1 µM,HOP-62,95%
same,growth at 0.1 µM,SF-539 [13],91%
same,growth at 0.1 µM,MDA-MB-435,92%
same,GI50,NCI-H23,> 25 µM
same,LC50,NCI-H23,> 25 µM
same,TGI,NCI-H23,> 25 µM
same,GI50,HT-29,4510 nM
same,TGI,HT-29,9.45 µM
same,CC50,HT-29,19.8 µM
same,growth at 0.1 µM,[14],90%
same,growth at 0.1 µM,[15],93%
same,growth at 0.1 µM,MDA-MB-231 [16],101%
same,growth at 1 µM,HCC 2998,99%
same,growth at 1 µM,KM12 [17],93%
same,growth at 1 µM,SNB-19,93%
same,growth at 1 µM,IGROV-1 [18],98%
same,growth at 1 µM,[19],101%
same,growth at 100 µM,[20],35%
CC(C)=CCC[C@H](C)c1ccc(C)c2c1OCN(CC1CCNCC1)C2,growth at 100 µM,[1],-80%
same,growth at 100 µM,[2],-83%
same,growth at 100 µM,KM12 [3],-90%
same,growth at 100 µM,SW-620 [4],-87%
same,GI50,SNB-75,11.9 µM
same,LC50,SNB-75,49.6 µM
same,TGI,SNB-75,24.3 µM
same,GI50,IGROV-1 [5],16.6 µM
same,LC50 (concentration killing 50% of cells),IGROV-1 [5],62.5 µM
same,TGI,IGROV-1 [5],32.2 µM
same,growth at 0.01 µM,NCI-H460,108%
same,growth at 0.01 µM,SW-620 [6],96%
same,growth at 0.01 µM,SF-295,92%
same,growth at 0.01 µM,SF-539 [7],91%
same,growth at 0.01 µM,Malme-3M,92%
same,growth at 100 µM,[8],-84%
same,growth at 100 µM,[9],-73%
same,growth at 100 µM,ACHN,-89%
same,growth at 100 µM,TK-10,-87%
same,growth at 100 µM,[10],-86%
same,growth at 100 µM,[11],-75%
same,growth at 100 µM,MDA-MB-468,-80%
same,growth at 0.01 µM,SK-MEL-28,107%
same,growth at 0.01 µM,MDA-MB-231 [12],101%
same,growth at 0.01 µM,T47D,95%
same,growth at 0.1 µM,HL-60(TB),91%
same,growth at 0.1 µM,HOP-62,94%
same,growth at 0.1 µM,SF-539 [13],94%
same,growth at 0.1 µM,MDA-MB-435,96%
same,GI50,NCI-H23,15.7 µM
same,LC50,NCI-H23,72 µM
same,TGI,NCI-H23,33.6 µM
same,GI50,HT-29,3000 nM
same,TGI,HT-29,8.38 µM
same,CC50,HT-29,53 µM
same,growth at 0.1 µM,[14],96%
same,growth at 0.1 µM,[15],98%
same,growth at 0.1 µM,MDA-MB-231 [16],101%
same,growth at 1 µM,HCC 2998,104%
same,growth at 1 µM,KM12 [17],103%
same,growth at 1 µM,SNB-19,94%
same,growth at 1 µM,IGROV-1 [18],106%
same,growth at 1 µM,[19],101%
same,growth at 100 µM,[20],-17%
